How the values were obtained:
[1] = test system: cell lines of the LAR subtype; conditions: cited from earlier work
basal-like TNBCs = conditions: cell lines and clinically; cited from earlier work
[2] = test system: mesenchymal-like cell lines, BT549, Hs578T, and MDA-MB231; assay: Kinase inhibitor screen, CellTiter Glo cell viability, one week; type: cell-based, human; conditions: did not reach statistical significance (p = 0.12)
[3] = test system: mesenchymal-like TNBC cell lines; conditions: cited from earlier work

CC(O)(CS(=O)(=O)c1ccc(F)cc1)C(=O)Nc1ccc(C#N)c(C(F)(F)F)c1 (stereo not shown) [bicalutamide]
selective toxicity by TNBC subtype [1]: selectively toxic to cell lines of the LAR subtype

N.N.[Cl][Pt][Cl] [cisplatin]
toxicity by TNBC subtype (basal-like TNBCs): more toxic to basal-like TNBCs

Cc1nc(Nc2ncc(C(=O)Nc3c(C)cccc3Cl)s2)cc(N2CCN(CCO)CC2)n1 [dasatinib]
sensitivity compared to cells of other TNBC subtypes [2]: more sensitive to dasatinib than cells of other TNBC subtypes | preferential toxicity by TNBC subtype [3]: preferential toxicity for mesenchymal-like TNBC cell lines
